Experimental data taken from PubChem BioAssay (NCI).
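Cultured in 96-well plates, cells were exposed to test compound for 48 hours across five concentrations. GI50 marks 50% less growth. TGI: total growth inhibition.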

Legend:
Assay in all cases: NCI tumour cell line growth inhibition, 48 h
A498 renal = system: A498 renal
NCI-H23 lung = system: NCI-H23 lung
HCT-15 colon = system: HCT-15 colon
HT29 colon = system: HT29 colon
OVCAR-5 ovarian = system: OVCAR-5 ovarian
HCC-2998 colon = system: HCC-2998 colon
HCT-116 colon = system: HCT-116 colon
SN12C renal = system: SN12C renal
DLD-1 colon = system: DLD-1 colon
SNB-78 CNS = system: SNB-78 CNS

COc1cc2c(cc1OC)C1=C(C=O)c3ccc(OC)c(OC)c3C(O)N1CC2 (configuration not stated)
TGI (A498 renal): 72.5 µM
TGI (NCI-H23 lung): 57.1 µM
TGI (HCT-15 colon): > 100 µM
TGI (HT29 colon): > 100 µM
TGI (OVCAR-5 ovarian): > 100 µM
TGI (HCC-2998 colon): 31.7 µM
TGI (HCT-116 colon): > 100 µM
TGI (SN12C renal): > 100 µM

CC1CC(c2ccccc2)=Nc2ccccc2S1 (configuration not stated)
TGI (A498 renal): > 100 µM
TGI (NCI-H23 lung): > 100 µM
TGI (HCT-15 colon): > 100 µM
TGI (HT29 colon): > 100 µM
TGI (DLD-1 colon): > 100 µM
TGI (OVCAR-5 ovarian): > 100 µM
TGI (SNB-78 CNS): > 100 µM
TGI (HCC-2998 colon): > 100 µM
TGI (HCT-116 colon): > 100 µM
TGI (SN12C renal): > 100 µM

C[n+]1c2ccccc2n2c3ccccc3c(NCCCn3ccnc3)c(C#N)c21
TGI (A498 renal): 46.5 µM
TGI (NCI-H23 lung): 9.13 µM
TGI (HCT-15 colon): 12 µM
TGI (HT29 colon): 37.9 µM
TGI (OVCAR-5 ovarian): 18.7 µM
TGI (HCC-2998 colon): 3.1 µM
TGI (HCT-116 colon): 10.1 µM
TGI (SN12C renal): 4.09 µM

COc1ccc(S(=O)(=O)NC(CCC(=O)NC(N)=O)C(=O)NC(N)=O)cc1 (configuration not stated)
TGI (A498 renal): > 100 µM
TGI (NCI-H23 lung): > 100 µM
TGI (HCT-15 colon): > 100 µM
TGI (HT29 colon): > 100 µM
TGI (OVCAR-5 ovarian): > 100 µM
TGI (HCC-2998 colon): > 100 µM
TGI (HCT-116 colon): > 100 µM
TGI (SN12C renal): > 100 µM

CC1(C)CCC[C@@]2(C)C1CC[C@@]1(CO)O[C@H](C3=CC(=O)OC3O)C[C@H]12 (some centres not stated)
TGI (A498 renal): 30.1 µM
TGI (NCI-H23 lung): 26.6 µM
TGI (HCT-15 colon): 23.5 µM
TGI (HT29 colon): 30.6 µM
TGI (OVCAR-5 ovarian): 37.5 µM
TGI (HCC-2998 colon): 31.3 µM
TGI (HCT-116 colon): 18.6 µM
TGI (SN12C renal): 26.6 µM

NC(=O)CSc1nc2ccccc2c(=O)n1N
TGI (A498 renal): > 100 µM
TGI (NCI-H23 lung): > 100 µM
TGI (HCT-15 colon): > 100 µM
TGI (HT29 colon): > 100 µM
TGI (OVCAR-5 ovarian): > 100 µM
TGI (HCC-2998 colon): > 100 µM
TGI (HCT-116 colon): > 100 µM
TGI (SN12C renal): > 100 µM

O=C(Nc1ccc(-n2cc(-c3ccncc3)c(-c3ccc(O)c(Cl)c3)n2)cc1)Nc1cc(C(F)(F)F)cc(C(F)(F)F)c1
GI50 (A498 renal): 3.68 µM
TGI (A498 renal): 16.3 µM
GI50 (NCI-H23 lung): 3.63 µM
TGI (NCI-H23 lung): 18.4 µM
GI50 (HCT-15 colon): 3.36 µM
TGI (HCT-15 colon): 12.6 µM
GI50 (HT29 colon): 8.94 µM
TGI (HT29 colon): 22.7 µM
GI50 (OVCAR-5 ovarian): 3.17 µM
TGI (OVCAR-5 ovarian): 12.7 µM
GI50 (HCC-2998 colon): 5.03 µM
TGI (HCC-2998 colon): 22.1 µM
GI50 (HCT-116 colon): 3.78 µM
TGI (HCT-116 colon): 13.7 µM
GI50 (SN12C renal): 4.12 µM
TGI (SN12C renal): 16.3 µM

CCNC(=S)N/N=C(/C)c1cccc(/C(C)=N\NC(=S)NCC)n1
TGI (A498 renal): 56.7 µM
TGI (NCI-H23 lung): 73.7 µM
TGI (HCT-15 colon): > 57 µM
TGI (HT29 colon): 46.2 µM
TGI (OVCAR-5 ovarian): > 72.8 µM
TGI (HCC-2998 colon): > 96.7 µM
TGI (HCT-116 colon): 13.1 µM
TGI (SN12C renal): > 65.6 µM

Cc1n[nH]c(=O)n1-n1cccc1
TGI (A498 renal): > 100 µM
TGI (NCI-H23 lung): > 100 µM
TGI (HCT-15 colon): > 100 µM
TGI (HT29 colon): > 100 µM
TGI (OVCAR-5 ovarian): > 100 µM
TGI (HCC-2998 colon): > 100 µM
TGI (HCT-116 colon): > 100 µM
TGI (SN12C renal): > 100 µM
